Data on twelve compounds can be found in patent US4456604A, “1-(3-Halo-2-pyridinyl) piperazine” (Merck & Co., Inc., priority 1982, dated 1984).

The pKi is the negative decadic logarithm of the Ki, by convention in mol/L.

The target of assay [1] is T1, α2-adrenergic receptor (Bos taurus, UniProt Q28838).
T1 construct: from tissue; host or cells: calf cerebral cortex
T1 sequence (Q28838 1-468): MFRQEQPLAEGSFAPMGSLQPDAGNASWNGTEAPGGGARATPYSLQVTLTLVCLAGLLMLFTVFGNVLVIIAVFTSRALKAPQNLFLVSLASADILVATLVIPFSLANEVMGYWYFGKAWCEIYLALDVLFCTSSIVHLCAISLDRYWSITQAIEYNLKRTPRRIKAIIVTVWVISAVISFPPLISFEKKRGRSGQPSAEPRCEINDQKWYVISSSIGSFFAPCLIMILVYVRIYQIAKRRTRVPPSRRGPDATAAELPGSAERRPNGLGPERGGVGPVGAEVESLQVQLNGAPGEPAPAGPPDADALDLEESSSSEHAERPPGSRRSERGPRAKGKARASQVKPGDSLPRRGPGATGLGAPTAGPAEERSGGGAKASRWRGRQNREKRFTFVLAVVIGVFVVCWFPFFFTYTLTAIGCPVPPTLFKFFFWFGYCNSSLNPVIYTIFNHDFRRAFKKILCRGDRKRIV
As to the kind of experiment: α2-adrenergic receptor binding ([3H] clonidine binding site, calf cerebral cortex). The following applies: for affinity for the α2-adrenergic receptors (in words): of the compounds tested, with the exception of compound 5. Here is the method: (§1) The α1 - and α2 -adrenergic receptor binding was determined for 1-(3-halo-2-pyridinyl)piperazines and a number of other structurally related compounds shown in Table I.
(§2) Binding to the α2 -adrenergic receptor was determined by the method of Lyon and Randall, Life Sciences, 26, 1121 (1980) and also is expressed in Table I as Ki representing the affinity of each compound for the [^3 H] clonidine binding site in calf cerebral cortex.

Assay [2] deals with α2-adrenergic receptor. The assay is described as above. Conditions: compared to any of the other tested compounds. Here is the method: as §1, §2
Assay [3] has as its target α1-adrenergic receptor. The assay can be described thus: α1-adrenergic receptor binding ([3H] prazosin binding site, calf cerebral cortex). Conditions: for pKi: [3H] prazosin binding site, calf cerebral cortex; for affinity for the α1-adrenergic receptors (in words): of the compounds tested. The procedure: as §1
Extent of binding to the α1 -adrenergic receptor was determined by the method of Greengrass and Bremner, Eur. J. Pharmacol., 55, 323 (1979) and is expressed in Table I as Ki, representing the affinity of each compound for the [^3 H] prazosin binding site in calf cerebral cortex.

The test system of assay [4] is depression. The following applies: in vivo; cited from earlier work.
Assay [5] concerns α1- or α2-adrenergic receptors. The following applies: Clineschmidt et al. 1979; cited from earlier work.
The subject of assay [6] is α2-adrenergic receptors. Conditions: cited from earlier work.
Assay [7] has as its system norepinephrine reuptake. The following applies: cited from earlier work.
Assay [8] concerns clonidine-induced sedation. The following applies: man; Autret et al. 1977; cited from earlier work.
The test system of assay [9] is locomotor depressant effects of methyldopa. Conditions: rats; Clineschmidt et al. 1980; cited from earlier work.
The subject of assay [10] is sedation produced by clonidine. Conditions: Drew et al. 1979; cited from earlier work.
Where [11] appears, read: [3H] clonidine binding site, calf cerebral cortex, read-out: Adrenergic Binding Ki α2.

pKi: −log10 of the molar value. Read-outs that look alike come from different tables or passages of the source.

For the compound `Fc1cccnc1N1CCNCC1` [Compound 1, 1-(3-fluoro-2-pyridinyl)piperazine], in [1], the pKi was 8.08 and the “affinity for the α2-adrenergic receptors (in words)” value is “strongest affinity (lowest Ki)”. In addition, the “selectivity or ratio of Kiα1/Kiα2 (in words)” value in [2] was “greatest selectivity”. For the same compound, in assay [3], the pKi was 5.64 and the “affinity for the α1-adrenergic receptors (in words)” value is “weakest affinity (highest Ki)”.
Take `Clc1cccnc1N1CCNCC1` [Compound 2, 1-(3-chloro-2-pyridinyl)piperazine]: the pKi in [1] (setting [11]) was 8.10. The “affinity for the α2-adrenergic receptors (in words)” value in [1] is listed as “strongest affinity (lowest Ki)”. The “selectivity or ratio of Kiα1/Kiα2 (in words)” value in assay [2] is given as “greatest selectivity”. In addition, in assay [3], the pKi is 5.74 and the “affinity for the α1-adrenergic receptors (in words)” value is reported as “weakest affinity (highest Ki)”.
Taken in the same sequence, the figures for `Brc1cccnc1N1CCNCC1` [Compound 3, 1-(3-bromo-2-pyridinyl)piperazine] were 7.96, “strongest affinity (lowest Ki)”, “greatest selectivity”, 5.83 and “weakest affinity (highest Ki)”.
Regarding `Ic1cccnc1N1CCNCC1` [Compound 4], the negative logarithm of the Ki (pKi) in [1] (setting [11]) is 7.38; in assay [3], 5.80.
In the case of `CN1CCN(c2ncccc2Br)CC1` [Compound 5], the pKi was 8.54 in assay [1] (setting [11]) and 6.80 in [3].
Taken in the same sequence, the figures for `Clc1cccc(N2CCNCC2)n1` [Compound 6] were 7.74 and 6.30.
Take `c1ccc(N2CCNCC2)nc1` [Compound 7]: the pKi in assay [1] (setting [11]) was 7.43; in assay [3], 5.62.
In turn, `Clc1ccc(N2CCNCC2)nc1` [Compound 8] gave a pKi in [1] of 6.00.
Turning to `Clc1cncc(N2CCNCC2)n1` [Compound 9], the values for the pKi in assay [1] and in [3] were 6.90 and 5.62, respectively.
As for `Clc1nccnc1N1CCNCC1` [Compound 10], the pKi in [1] (setting [11]) is 6.80; in assay [3], 4.59.
For `CN1CCN2c3ccccc3Cc3ccccc3C2C1` (centres unmarked) [Mianserin], the clinical antidepressant effectiveness entry in assay [4] is reported as “clinically effective antidepressant”. Besides, in assay [5], the “selectivity for α1- or α2-adrenergic receptors” value was “fails to exhibit any important selectivity for α1 - or α2 -adrenergic receptors”. Further, the α2-adrenergic receptor blockade entry in [6] was “blocks α2 -adrenergic receptors”. Also, the “in vivo norepinephrine reuptake inhibiting properties” value in assay [7] was “minimal in vivo norepinephrine reuptake inhibiting properties”.
Turning to `COC(=O)[C@@H]1[C@H]2C[C@H]3c4[nH]c5ccccc5c4CCN3C[C@@H]2CC[C@@H]1O` [yohimbine], the “effect on clonidine-induced sedation” value in assay [8] is listed as “reduce clonidine-induced sedation in man”. For the same compound, the “effect on locomotor depressant effects of methyldopa” value in [9] is “antagonizes”. The “effect on sedation produced by clonidine” value in assay [10] is on record as “antagonizes the sedation produced by clonidine”.
